US9169251B2, “Pyrrolopyridine derivatives and their use as CRTH2 antagonists” (Novartis AG, priority 2004, dated 2015)

Target: T1, CRTh2 receptor (Homo sapiens, UniProt Q9Y5Y4)
T1 construct: expressed in transfected cells; host or cells: CHO.K1 (Chinese Hamster Ovary) cells, line CHO.K1-CRTh2
T1 sequence (Q9Y5Y4 1-395): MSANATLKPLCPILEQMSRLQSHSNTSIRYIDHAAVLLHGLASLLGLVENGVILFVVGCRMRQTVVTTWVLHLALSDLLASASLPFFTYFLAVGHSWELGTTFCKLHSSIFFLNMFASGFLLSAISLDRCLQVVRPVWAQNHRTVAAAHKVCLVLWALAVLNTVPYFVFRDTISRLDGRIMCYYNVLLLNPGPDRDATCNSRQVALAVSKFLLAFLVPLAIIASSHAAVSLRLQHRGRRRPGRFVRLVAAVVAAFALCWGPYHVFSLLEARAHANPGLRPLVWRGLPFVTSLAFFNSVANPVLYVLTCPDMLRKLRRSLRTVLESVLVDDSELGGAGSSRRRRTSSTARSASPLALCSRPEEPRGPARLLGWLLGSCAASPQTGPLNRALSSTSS
Assay: Filtration binding assay: competition with [3H]-PGD2 on CHO.K1-CRTh2 membranes (called SPA binding assay)
Details: [3H]-PGD2 2.5 nM
Protocol: Filtration Binding Assay Protocol
The binding of CRTh2 antagonists is determined using membranes prepared from human CRTh2-expressing Chinese Hamster Ovary cells (CHO.K1-CRTh2). To produce cell membranes CHO.K1-CRTh2 cells cultured in roller bottles are harvested using cell dissociation buffer (Invitrogen). The cells are pelleted by centrifugation (167 g, 5 min). […] At 4° C. cells are homogenized using a Polytron® (IKA Ultra Turrax T25) for 5 bursts of 1 second.
The binding of [^3H]-PGD2 (157 Ci/mmol) to CHO.K1-CRTh2 membranes is determined in the absence (total binding) and presence (non-specific binding) of unlabelled PGD2 (1 μM). Subtraction of the cpm (counts per minute) of [^3H]-PGD2 binding in presence of excess unlabelled PGD2 from that observed in the absence of excess unlabelled PGD2 is defined as specific binding. […]
The plates are incubated at room temperature on a shaker for 1 hour, and then harvested (Tomtec Harvester 9600) onto GF/C filter plates using wash buffer (10 mM HEPES-KOH, pH 7.4). […] Plates are then counted using a Packard Top Count instrument, Plates are then read on the Packard Topcount with the 3H Scintillation program (1 min per well). […]
Ki values are determined using Sigma Plot™ software, using the Cheng-Prussoff equation. […]

For Cc1c(CC(=O)O)c2cccnc2n1Cc1ccc(S(C)(=O)=O)cc1C(F)(F)F [Example 95, [1-(4-Methanesulfonyl-2-trifluoromethyl-benzyl)-2-methyl-1H-pyrrolo[2,3-b]pyridin-3-yl]-acetic acid], the Ki was 4 nM.
